Measurements from the supplement of paper PMC6045584.
± gives the standard deviation of the averaged measurements.

Legend:
[1] = compound: CCc1cc(Nc2nccc(-c3c(-c4ccc(OC)c(C(=O)Nc5c(F)cccc5F)c4)nc4ccccn34)n2)c(OC)cc1N1CCC(N2CCN(S(C)(=O)=O)CC2)CC1; experiment: surviving fraction relative to DMSO-only wells; higher = less growth inhibition; conditions: exposure time: 5 days
In short: (§1)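 Inhibitors were tested at 0.5, 1, 5, 10, 50, 100, 500 and 1000 nM, applied continuously for five days beginning 24 hours after log-phase tumour cells were seeded at 250–500 per well in 384-well plates. CellTiter-Glo luminescence served as the viability measure, expressed as surviving fraction against the median of DMSO-only wells. Each line, screened three times, was kept only with replicate Pearson r >0.7 and median Z' >0.3.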

NILOTINIB = compound: Cc1cn(-c2cc(NC(=O)c3ccc(C)c(Nc4nccc(-c5cccnc5)n4)c3)cc(C(F)(F)F)c2)cn1 [NILOTINIB]; experiment: as above; conditions: exposure time: 5 days
In short: as §1

Test System | surviving fraction ([1]; 0.5 nM) | surviving fraction ([1]; 1 nM) | surviving fraction ([1]; 5 nM) | surviving fraction ([1]; 10 nM) | surviving fraction ([1]; 50 nM) | surviving fraction ([1]; 100 nM) | surviving fraction ([1]; 500 nM) | surviving fraction ([1]; 1000 nM) | surviving fraction (NILOTINIB; 0.5 nM) | surviving fraction (NILOTINIB; 1 nM) | surviving fraction (NILOTINIB; 5 nM) | surviving fraction (NILOTINIB; 10 nM) | surviving fraction (NILOTINIB; 50 nM) | surviving fraction (NILOTINIB; 100 nM) | surviving fraction (NILOTINIB; 500 nM) | surviving fraction (NILOTINIB; 1000 nM)
MDAMB436 BREAST | 1.01 ± 0.065 | 0.997 ± 0.064 | 0.933 ± 0.063 | 0.965 ± 0.041 | 0.961 ± 0.11 | 0.967 ± 0.071 | 1.04 ± 0.07 | 0.887 ± 0.11 | 0.905 ± 0.076 | 1 ± 0.088 | 1 ± 0.017 | 0.964 ± 0.057 | 0.82 ± 0.087 | 0.915 ± 0.033 | 0.904 ± 0.03 | 0.78 ± 0.051
MDAMB453 BREAST | 1.02 ± 0.037 | 1.09 ± 0.12 | 1.14 ± 0.043 | 1.08 ± 0.054 | 1.12 ± 0.029 | 1.16 ± 0.031 | 1.02 ± 0.061 | 1.07 ± 0.086 | 1 ± 0.045 | 0.998 ± 0.097 | 1.03 ± 0.077 | 1.05 ± 0.088 | 0.91 ± 0.02 | 0.925 ± 0.016 | 0.895 ± 0.0087 | 0.874 ± 0.068
MDAMB468 BREAST | 0.909 ± 0.09 | 1.04 ± 0.053 | 1.12 ± 0.047 | 1.14 ± 0.041 | 1.04 ± 0.091 | 1.17 ± 0.073 | 1.04 ± 0.07 | 1.06 ± 0.041 | 0.908 ± 0.055 | 0.931 ± 0.043 | 0.935 ± 0.069 | 1.05 ± 0.024 | 0.927 ± 0.037 | 0.835 ± 0.0095 | 0.9353 ± 0.0015 | 0.927 ± 0.045
MFM223 BREAST | 1.14 ± 0.05 | 1.15 ± 0.036 | 1.1 ± 0.08 | 1.15 ± 0.027 | 1.15 ± 0.012 | 1.21 ± 0.06 | 1.19 ± 0.033 | 1.05 ± 0.079 | 1.11 ± 0.085 | 1.15 ± 0.12 | 1.08 ± 0.058 | 1.08 ± 0.056 | 0.798 ± 0.048 | 0.931 ± 0.15 | 0.9 ± 0.11 | 0.912 ± 0.13
MG63 BONE | 0.953 ± 0.012 | 0.987 ± 0.028 | 1.005 ± 0.01 | 1.06 ± 0.026 | 0.968 ± 0.034 | 1.01 ± 0.014 | 0.956 ± 0.029 | 0.976 ± 0.047 | 1.03 ± 0.04 | 1.04 ± 0.053 | 1.11 ± 0.042 | 1.13 ± 0.079 | 1.19 ± 0.043 | 1.23 ± 0.07 | 1.24 ± 0.047 | 1.28 ± 0.049
MHM BONE | 0.97 ± 0.021 | 0.974 ± 0.032 | 1.03 ± 0.011 | 0.998 ± 0.011 | 1.027 ± 0.0053 | 1 ± 0.03 | 0.982 ± 0.055 | 0.975 ± 0.029 | 1.01 ± 0.028 | 0.999 ± 0.05 | 1.09 ± 0.014 | 1.06 ± 0.028 | 1.11 ± 0.023 | 1.13 ± 0.025 | 1.135 ± 0.0021 | 1.19 ± 0.059
NCIH441 LUNG | 0.964 ± 0.035 | 0.977 ± 0.13 | 0.99 ± 0.029 | 0.989 ± 0.059 | 0.997 ± 0.04 | 1.07 ± 0.065 | 0.917 ± 0.072 | 0.979 ± 0.092 | 1.08 ± 0.14 | 1.01 ± 0.024 | 1.11 ± 0.037 | 1.05 ± 0.043 | 0.986 ± 0.11 | 0.91 ± 0.17 | 0.874 ± 0.022 | 0.889 ± 0.064
NOS1 BONE | 1 ± 0.038 | 1.05 ± 0.051 | 1.16 ± 0.14 | 1.35 ± 0.26 | 1.22 ± 0.21 | 1.14 ± 0.12 | 1.12 ± 0.11 | 0.949 ± 0.043 | 0.958 ± 0.048 | 1.11 ± 0.029 | 1.07 ± 0.093 | 1.21 ± 0.048 | 1.02 ± 0.045 | 0.849 ± 0.013 | 0.666 ± 0.019 | 0.606 ± 0.03
NY BONE | 0.969 ± 0.012 | 0.982 ± 0.027 | 1.023 ± 0.0066 | 1.09 ± 0.014 | 1.03 ± 0.039 | 1.04 ± 0.023 | 0.993 ± 0.025 | 0.977 ± 0.024 | 1.03 ± 0.038 | 1.04 ± 0.018 | 1.08 ± 0.025 | 1.1 ± 0.049 | 1.12 ± 0.043 | 1.12 ± 0.03 | 1.01 ± 0.06 | 1.01 ± 0.045
OS25HAL BONE | 0.997 ± 0.011 | 1.02 ± 0.011 | 1.032 ± 0.01 | 1.04 ± 0.037 | 1.02 ± 0.015 | 1.04 ± 0.018 | 0.948 ± 0.055 | 0.944 ± 0.05 | 1.02 ± 0.034 | 0.973 ± 0.028 | 1.01 ± 0.037 | 0.997 ± 0.061 | 1.03 ± 0.019 | 0.944 ± 0.055 | 0.85 ± 0.05 | 0.795 ± 0.055
OSHN BONE | 1.02 ± 0.018 | 1.04 ± 0.036 | 1.03 ± 0.038 | 1.06 ± 0.034 | 1.02 ± 0.033 | 1.05 ± 0.04 | 1.01 ± 0.023 | 1.04 ± 0.048 | 1.02 ± 0.017 | 1.01 ± 0.023 | 1.06 ± 0.025 | 1.01 ± 0.029 | 0.996 ± 0.034 | 1 ± 0.033 | 0.967 ± 0.02 | 0.96 ± 0.026
PCI30 HEADNECK | 0.889 ± 0.028 | 0.961 ± 0.15 | 1 ± 0.064 | 1.04 ± 0.045 | 0.947 ± 0.054 | 1.07 ± 0.032 | 0.989 ± 0.065 | 0.979 ± 0.065 | 0.952 ± 0.075 | 0.888 ± 0.045 | 1.04 ± 0.06 | 1.01 ± 0.05 | 0.921 ± 0.072 | 0.871 ± 0.056 | 1.08 ± 0.073 | 0.965 ± 0.063
RDES SOFT TISSUE | 1.25 ± 0.081 | 1.13 ± 0.14 | 1.19 ± 0.15 | 1.2 ± 0.043 | 0.998 ± 0.2 | 1.09 ± 0.043 | 0.924 ± 0.1 | 1.25 ± 0.21 | 1.14 ± 0.097 | 1.25 ± 0.058 | 0.966 ± 0.14 | 1.14 ± 0.14 | 0.847 ± 0.16 | 0.78 ± 0.026 | 0.821 ± 0.2 | 0.944 ± 0.13
S68 BREAST | 0.916 ± 0.045 | 1.22 ± 0.11 | 1.29 ± 0.2 | 1.06 ± 0.18 | 1.1 ± 0.26 | 1.06 ± 0.27 | 0.688 ± 0.022 | 0.737 ± 0.089 | 1 ± 0.3 | 1.1 ± 0.14 | 1.34 ± 0.29 | 1.06 ± 0.32 | 0.643 ± 0.041 | 0.846 ± 0.29 | 0.449 ± 0.18 | 0.544 ± 0.2
SAOS2 BONE | 1.1 ± 0.024 | 1.04 ± 0.025 | 1.11 ± 0.035 | 1.144 ± 0.0087 | 1.09 ± 0.016 | 1.19 ± 0.025 | 1.16 ± 0.045 | 1.11 ± 0.018 | 1.13 ± 0.064 | 1.09 ± 0.038 | 1.19 ± 0.035 | 1.21 ± 0.062 | 0.963 ± 0.072 | 0.912 ± 0.091 | 0.91 ± 0.016 | 0.905 ± 0.06
SCC003 HEADNECK | 0.958 ± 0.069 | 1.13 ± 0.031 | 0.966 ± 0.024 | 1.1 ± 0.12 | 1.03 ± 0.14 | 1.1 ± 0.19 | 1.03 ± 0.019 | 1.08 ± 0.085 | 1.1 ± 0.048 | 1.03 ± 0.14 | 1.1 ± 0.037 | 1.04 ± 0.02 | 0.873 ± 0.38 | 1 ± 0.23 | 0.906 ± 0.24 | 0.995 ± 0.13
SCC36 HEADNECK | 0.967 ± 0.035 | 1.04 ± 0.096 | 1.11 ± 0.091 | 1.1 ± 0.072 | 1.07 ± 0.027 | 1.09 ± 0.078 | 0.887 ± 0.03 | 0.791 ± 0.024 | 1.04 ± 0.035 | 1.02 ± 0.043 | 1.06 ± 0.15 | 1.09 ± 0.046 | 0.839 ± 0.048 | 0.849 ± 0.04 | 0.74 ± 0.052 | 0.79 ± 0.038
SCC47 HEADNECK | 0.99 ± 0.038 | 0.992 ± 0.047 | 1.05 ± 0.047 | 1.06 ± 0.021 | 1 ± 0.075 | 1.08 ± 0.038 | 1.04 ± 0.028 | 1.03 ± 0.04 | 1.07 ± 0.05 | 1.06 ± 0.045 | 1.15 ± 0.064 | 1.08 ± 0.025 | 1.041 ± 0.0046 | 1.04 ± 0.074 | 0.95 ± 0.037 | 0.932 ± 0.019
SCC90 HEADNECK | 1 ± 0.084 | 1.01 ± 0.11 | 1.02 ± 0.052 | 1.1 ± 0.023 | 1.02 ± 0.046 | 1.12 ± 0.21 | 1.06 ± 0.23 | 1.14 ± 0.046 | 0.993 ± 0.034 | 1 ± 0.02 | 1.07 ± 0.17 | 1.201 ± 0.0059 | 0.966 ± 0.13 | 0.764 ± 0.045 | 0.924 ± 0.069 | 0.867 ± 0.1
